Measurements published in ChEMBL document CHEMBL1201862, “PubChem BioAssay data set” (2004).
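Interpolation was linear, between the two tested concentrations surrounding the appropriate level; five concentrations were tested over 48 hours in 96-well plates. GI50: concentration for 50% inhibition of growth.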 The source made the active and inactive calls. Cut-off read from the data, not from the text of the source: active = GI50 up to about 1.1 µM and inactive = higher.

Key:
Assay in all cases: NCI-60 cell line screen, 48 h
RPMI-8226 = system: RPMI-8226
U-251 = system: U-251
NCI-H522 = system: NCI-H522
MDA-N = system: MDA-N
EKVX = system: EKVX
TK-10 = system: TK-10
PC-3 = system: PC-3
MDA-MB-231 = system: MDA-MB-231
CAKI-1 = system: CAKI-1
NCI-H460 = system: NCI-H460
SK-OV-3 = system: SK-OV-3
UACC-62 = system: UACC-62
SK-MEL-28 = system: SK-MEL-28
HOP-62 = system: HOP-62
HCT-116 = system: HCT-116
HOP-92 = system: HOP-92
ACHN = system: ACHN
SN12C = system: SN12C
Hs-578T = system: Hs-578T
M14 = system: M14

Measured: GI50

O=C1C[C@H]2[C@H](c3ccc(Br)cc3)[C@H]3C(=O)c4ccccc4NC(=O)[C@@H]3[C@@]2(O)c2ccccc2N1
inactive: RPMI-8226 9.82 µM | U-251 22.1 µM | NCI-H522 12.1 µM | MDA-N 17.1 µM | EKVX 48.6 µM | TK-10 17.1 µM | PC-3 8.15 µM | MDA-MB-231 14.4 µM | CAKI-1 5.85 µM | NCI-H460 25.5 µM | SK-OV-3 21 µM | UACC-62 24.8 µM | SK-MEL-28 26.5 µM | HOP-62 19.6 µM | HCT-116 12.3 µM | ACHN 11.2 µM | SN12C 24.5 µM | Hs-578T 48 µM | M14 12.3 µM
active: HOP-92 < 0.01 µM

CN(C(=O)[C@H](NC(=O)OCc1ccccc1)c1ccccc1)C1CCCCC1N1CCCC1 (stereo not given in full)
inactive: RPMI-8226 36.3 µM | U-251 > 100 µM | NCI-H522 43.9 µM | MDA-N > 100 µM | EKVX > 100 µM | TK-10 74.6 µM | PC-3 69.7 µM | MDA-MB-231 > 100 µM | CAKI-1 > 100 µM | NCI-H460 40.6 µM | SK-OV-3 > 100 µM | UACC-62 > 100 µM | SK-MEL-28 > 100 µM | HOP-62 > 100 µM | HCT-116 69.2 µM | HOP-92 31.5 µM | ACHN > 100 µM | SN12C > 100 µM | Hs-578T 19.6 µM | M14 23.4 µM

CN1CCN(C)C12C=c1ccccc1=CC21CC1
inactive: RPMI-8226 30 µM | U-251 37.8 µM | NCI-H522 24.5 µM | MDA-N 27.4 µM | EKVX > 95.9 µM | TK-10 66.7 µM | PC-3 32.3 µM | MDA-MB-231 38.4 µM | CAKI-1 74.1 µM | NCI-H460 30.8 µM | SK-OV-3 > 92.9 µM | UACC-62 18.6 µM | SK-MEL-28 20.7 µM | HOP-62 > 91.4 µM | HCT-116 25.1 µM | HOP-92 28.7 µM | ACHN 74.8 µM | SN12C 81.1 µM | Hs-578T 21.9 µM | M14 18.6 µM

COn1cc(C=O)c2ccccc21
inactive: RPMI-8226 > 68.1 µM | U-251 55.6 µM | NCI-H522 38.6 µM | MDA-N 23.6 µM | EKVX 23.7 µM | TK-10 > 54.3 µM | PC-3 > 74.1 µM | MDA-MB-231 > 100 µM | CAKI-1 28.7 µM | NCI-H460 35.1 µM | SK-OV-3 67 µM | UACC-62 41 µM | SK-MEL-28 33.6 µM | HOP-62 81.3 µM | HCT-116 > 59 µM | HOP-92 > 68.9 µM | ACHN 32.7 µM | SN12C > 80.4 µM | Hs-578T 37.4 µM | M14 > 61.8 µM

O=C(O)C1C2CC3C(OC(=O)C31)C2Br (stereo not given)
inactive: RPMI-8226 > 100 µM | U-251 > 100 µM | NCI-H522 > 100 µM | MDA-N > 100 µM | EKVX > 100 µM | TK-10 > 100 µM | PC-3 > 100 µM | MDA-MB-231 > 100 µM | CAKI-1 > 100 µM | NCI-H460 > 100 µM | SK-OV-3 > 100 µM | UACC-62 > 100 µM | SK-MEL-28 > 100 µM | HOP-62 > 100 µM | HCT-116 > 100 µM | HOP-92 > 100 µM | ACHN > 100 µM | SN12C > 100 µM | Hs-578T > 100 µM | M14 > 100 µM
